Converted amounts (≈) assume the structure as drawn. Some results are limits rather than exact numbers.

One may read the MIC80 as an inhibitory concentration at the 80% level, which refers to growth in some studies and to a panel of isolates in others.

For the first assay, the system named is Candida parapsilosis. Briefly: Antifungal activity against Candida parapsilosis GIM 2.190 assessed as inhibition of fungal growth by CLSI M27-A3 guidelines based method. The note with it: Lodderomyces parapsilosis. The assay is classed as functional.
Consider `CN(Cc1ccc(N2CCN(Cc3cc(Br)ccc3Br)CC2)cc1)CC(O)(Cn1cncn1)c1ccc(F)cc1F` (stereo not given), for which the MIC80 is 0.006 mg/L (≈ 0.00869 µM).

For `CN(Cc1ccc(N2CCN(Cc3cc(Cl)ccc3Br)CC2)cc1)CC(O)(Cn1cncn1)c1ccc(F)cc1F` (stereo not given), the MIC80 was 0.006 mg/L (≈ 0.00929 µM).

`CN(Cc1ccc(N2CCN(C(=O)c3ccccc3)CC2)cc1)CC(O)(Cn1cncn1)c1ccc(F)cc1F` (stereo not given): the MIC80 turned out to be 0.025 mg/L (≈ 0.0457 µM).

For the compound `CN(Cc1ccc(N2CCN(Cc3ccc(Cl)cc3)CC2)cc1)CC(O)(Cn1cncn1)c1ccc(F)cc1F` (stereo not given), the MIC80 came to 0.1 mg/L (≈ 0.176 µM).

For `CC(C)N1CCN(c2ccc(CN(C)CC(O)(Cn3cncn3)c3ccc(F)cc3F)cc2)CC1` (stereo not given), the MIC80 came out at 4 mg/L (≈ 8.25 µM).

`CN(Cc1ccc(N2CCN(Cc3ccc(Br)cc3Br)CC2)cc1)CC(O)(Cn1cncn1)c1ccc(F)cc1F` (stereo not given): the MIC80 amounted to 0.006 mg/L (≈ 0.00869 µM).

Another assay has as its system Candida albicans. Briefly: Antifungal activity against Candida albicans GIM 2.194 assessed as inhibition of fungal growth by CLSI M27-A3 guidelines based method. The assay is classed as functional.
Details: not given
On to `CN(Cc1ccc(N2CCN(Cc3cc(Br)ccc3Br)CC2)cc1)CC(O)(Cn1cncn1)c1ccc(F)cc1F` (stereo not given), for which the MIC80 was 0.025 mg/L (≈ 0.0362 µM).

As for `CN(Cc1ccc(N2CCN(Cc3cc(Cl)ccc3Br)CC2)cc1)CC(O)(Cn1cncn1)c1ccc(F)cc1F` (stereo not given), the MIC80 stood at 0.013 mg/L (≈ 0.0201 µM).

On to `CN(Cc1ccc(N2CCN(C(=O)c3ccccc3)CC2)cc1)CC(O)(Cn1cncn1)c1ccc(F)cc1F` (stereo not given), for which the MIC80 was found to be 0.013 mg/L (≈ 0.0238 µM).

On to `CN(Cc1ccc(N2CCN(Cc3ccc(Cl)cc3)CC2)cc1)CC(O)(Cn1cncn1)c1ccc(F)cc1F` (stereo not given), for which the MIC80 stood at 0.05 mg/L (≈ 0.0882 µM).

Take `CC(C)N1CCN(c2ccc(CN(C)CC(O)(Cn3cncn3)c3ccc(F)cc3F)cc2)CC1` (stereo not given): the MIC80 turned out to be 8 mg/L (≈ 16.5 µM).

As for `CN(Cc1ccc(N2CCN(Cc3ccc(Br)cc3Br)CC2)cc1)CC(O)(Cn1cncn1)c1ccc(F)cc1F` (stereo not given), the MIC80 was 0.013 mg/L (≈ 0.0188 µM).

In another assay the test system is Candida albicans. Briefly: Antifungal activity against Candida albicans SC5314 assessed as inhibition of fungal growth by CLSI M27-A3 guidelines based method. Format: functional.
Details: not given
Take `CN(Cc1ccc(N2CCN(Cc3cc(Br)ccc3Br)CC2)cc1)CC(O)(Cn1cncn1)c1ccc(F)cc1F` (stereo not given): the MIC80 was 0.013 mg/L (≈ 0.0188 µM).

In the case of `CN(Cc1ccc(N2CCN(Cc3cc(Cl)ccc3Br)CC2)cc1)CC(O)(Cn1cncn1)c1ccc(F)cc1F` (stereo not given), the MIC80 amounted to 0.013 mg/L (≈ 0.0201 µM).

On to `CN(Cc1ccc(N2CCN(C(=O)c3ccccc3)CC2)cc1)CC(O)(Cn1cncn1)c1ccc(F)cc1F` (stereo not given), for which the MIC80 came to 0.025 mg/L (≈ 0.0457 µM).

On to `CN(Cc1ccc(N2CCN(Cc3ccc(Cl)cc3)CC2)cc1)CC(O)(Cn1cncn1)c1ccc(F)cc1F` (stereo not given), for which the MIC80 came out at 0.05 mg/L (≈ 0.0882 µM).

For the compound `CC(C)N1CCN(c2ccc(CN(C)CC(O)(Cn3cncn3)c3ccc(F)cc3F)cc2)CC1` (stereo not given), the MIC80 stood at 4 mg/L (≈ 8.25 µM).

`CN(Cc1ccc(N2CCN(Cc3ccc(Br)cc3Br)CC2)cc1)CC(O)(Cn1cncn1)c1ccc(F)cc1F` (stereo not given): the MIC80 came to 0.013 mg/L (≈ 0.0188 µM).

The subject of another assay is Pichia kudriavzevii. Kind of assay: Antifungal activity against Candida krusei GIM 2.1 assessed as inhibition of fungal growth by CLSI M27-A3 guidelines based method.
Details: not given
Format: functional.
As to `CN(Cc1ccc(N2CCN(Cc3cc(Br)ccc3Br)CC2)cc1)CC(O)(Cn1cncn1)c1ccc(F)cc1F` (stereo not given), the MIC80 was 0.1 mg/L (≈ 0.145 µM).

As to `CN(Cc1ccc(N2CCN(Cc3cc(Cl)ccc3Br)CC2)cc1)CC(O)(Cn1cncn1)c1ccc(F)cc1F` (stereo not given), the MIC80 is 0.2 mg/L (≈ 0.31 µM).

As for `CN(Cc1ccc(N2CCN(C(=O)c3ccccc3)CC2)cc1)CC(O)(Cn1cncn1)c1ccc(F)cc1F` (stereo not given), the MIC80 worked out at 1.6 mg/L (≈ 2.93 µM).

Turning to `CN(Cc1ccc(N2CCN(Cc3ccc(Cl)cc3)CC2)cc1)CC(O)(Cn1cncn1)c1ccc(F)cc1F` (stereo not given), the MIC80 was 0.1 mg/L (≈ 0.176 µM).

As for `CC(C)N1CCN(c2ccc(CN(C)CC(O)(Cn3cncn3)c3ccc(F)cc3F)cc2)CC1` (stereo not given), the MIC80 was above 32 mg/L.

With `CN(Cc1ccc(N2CCN(Cc3ccc(Br)cc3Br)CC2)cc1)CC(O)(Cn1cncn1)c1ccc(F)cc1F` (stereo not given), the MIC80 turned out to be 0.1 mg/L (≈ 0.145 µM).

A further assay has as its system Nakaseomyces glabratus. Briefly: Antifungal activity against Candida glabrata assessed as inhibition of fungal growth by CLSI M27-A3 guidelines based method. The assay is classed as functional.
Details: not given
On to `CN(Cc1ccc(N2CCN(Cc3cc(Br)ccc3Br)CC2)cc1)CC(O)(Cn1cncn1)c1ccc(F)cc1F` (stereo not given), for which the MIC80 was determined as 0.1 mg/L (≈ 0.145 µM).

Take `CN(Cc1ccc(N2CCN(Cc3cc(Cl)ccc3Br)CC2)cc1)CC(O)(Cn1cncn1)c1ccc(F)cc1F` (stereo not given): the MIC80 was 0.2 mg/L (≈ 0.31 µM).

As for `CN(Cc1ccc(N2CCN(C(=O)c3ccccc3)CC2)cc1)CC(O)(Cn1cncn1)c1ccc(F)cc1F` (stereo not given), the MIC80 was found to be 1.6 mg/L (≈ 2.93 µM).

Turning to `CN(Cc1ccc(N2CCN(Cc3ccc(Cl)cc3)CC2)cc1)CC(O)(Cn1cncn1)c1ccc(F)cc1F` (stereo not given), the MIC80 was found to be 0.8 mg/L (≈ 1.41 µM).

For the compound `CC(C)N1CCN(c2ccc(CN(C)CC(O)(Cn3cncn3)c3ccc(F)cc3F)cc2)CC1` (stereo not given), the MIC80 is above 32 mg/L.

On to `CN(Cc1ccc(N2CCN(Cc3ccc(Br)cc3Br)CC2)cc1)CC(O)(Cn1cncn1)c1ccc(F)cc1F` (stereo not given), for which the MIC80 turned out to be 0.1 mg/L (≈ 0.145 µM).

Another assay concerns Cryptococcus neoformans. Briefly: Antifungal activity against Cryptococcus neoformans CGMCC 2.3161 assessed as inhibition of fungal growth by CLSI M27-A3 guidelines based method. Format: functional.
Details: not given
Turning to `CN(Cc1ccc(N2CCN(Cc3cc(Cl)ccc3Br)CC2)cc1)CC(O)(Cn1cncn1)c1ccc(F)cc1F` (stereo not given), the MIC80 was 0.1 mg/L (≈ 0.155 µM).

For the compound `CN(Cc1ccc(N2CCN(C(=O)c3ccccc3)CC2)cc1)CC(O)(Cn1cncn1)c1ccc(F)cc1F` (stereo not given), the MIC80 amounted to 0.4 mg/L (≈ 0.732 µM).

As to `CN(Cc1ccc(N2CCN(Cc3ccc(Cl)cc3)CC2)cc1)CC(O)(Cn1cncn1)c1ccc(F)cc1F` (stereo not given), the MIC80 worked out at 0.8 mg/L (≈ 1.41 µM).

In the case of `CC(C)N1CCN(c2ccc(CN(C)CC(O)(Cn3cncn3)c3ccc(F)cc3F)cc2)CC1` (stereo not given), the MIC80 is above 32 mg/L.

A further assay relates to Candida tropicalis. Kind of assay: Antifungal activity against Candida tropicalis GIM 2.183 assessed as inhibition of fungal growth by CLSI M27-A3 guidelines based method.
Details: not given
The assay is classed as functional.
As to `CN(Cc1ccc(N2CCN(Cc3cc(Br)ccc3Br)CC2)cc1)CC(O)(Cn1cncn1)c1ccc(F)cc1F` (stereo not given), the MIC80 is 0.006 mg/L (≈ 0.00869 µM).

Turning to `CN(Cc1ccc(N2CCN(Cc3cc(Cl)ccc3Br)CC2)cc1)CC(O)(Cn1cncn1)c1ccc(F)cc1F` (stereo not given), the MIC80 was 0.006 mg/L (≈ 0.00929 µM).

On to `CN(Cc1ccc(N2CCN(C(=O)c3ccccc3)CC2)cc1)CC(O)(Cn1cncn1)c1ccc(F)cc1F` (stereo not given), for which the MIC80 came out at 0.013 mg/L (≈ 0.0238 µM).

On to `CN(Cc1ccc(N2CCN(Cc3ccc(Cl)cc3)CC2)cc1)CC(O)(Cn1cncn1)c1ccc(F)cc1F` (stereo not given), for which the MIC80 turned out to be 0.05 mg/L (≈ 0.0882 µM).

Take `CC(C)N1CCN(c2ccc(CN(C)CC(O)(Cn3cncn3)c3ccc(F)cc3F)cc2)CC1` (stereo not given): the MIC80 came out at 2 mg/L (≈ 4.13 µM).

On to `CN(Cc1ccc(N2CCN(Cc3ccc(Br)cc3Br)CC2)cc1)CC(O)(Cn1cncn1)c1ccc(F)cc1F` (stereo not given), for which the MIC80 came out at 0.006 mg/L (≈ 0.00869 µM).
